Residues, ends and D or L forms follow the SMILES beside them. *: point of attachment. Cbz = O=C(OCc1ccccc1)*; CH2F = FC*

We go through two molecules from PMC8204911 (ACS Pharmacology & Translational Science, 2021).

The target in one test is T1, caspase-3 (Homo sapiens, UniProt P42574).
T1 sequence (P42574 29-175 limits assumed): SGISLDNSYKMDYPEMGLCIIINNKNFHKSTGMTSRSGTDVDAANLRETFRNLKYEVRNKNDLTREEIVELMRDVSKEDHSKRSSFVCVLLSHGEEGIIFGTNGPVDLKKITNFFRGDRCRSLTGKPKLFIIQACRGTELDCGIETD
T1 sequence (P42574 176-277 limits assumed): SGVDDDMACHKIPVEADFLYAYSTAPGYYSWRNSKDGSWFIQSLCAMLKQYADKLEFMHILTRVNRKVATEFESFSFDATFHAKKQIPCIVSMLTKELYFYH
It is filed as biochemical. Conditions: read-out: Caspase-3 IC50.

The target of the next test is SARS-CoV-2 M^pro (Severe acute respiratory syndrome coronavirus 2, UniProt P0DTD1). Conditions: at 20 μM, authors' previous screening; cited from earlier work.

With `COC(=O)C[C@H](NC(=O)[C@H](C)NC(=O)[C@@H](NC(=O)OCc1ccccc1)C(C)C)C(=O)CF` [Z-VAD-FMK] (Cbz-Val-Ala-Asp(OMe)-CH2F), at caspase-3, the IC50 turned out to be 100 ± 40 nM.

Take `CCC[C@H](NC(=O)[C@@H]1[C@H]2CCC[C@H]2CN1C(=O)[C@@H](NC(=O)[C@@H](NC(=O)c1cnccn1)C1CCCCC1)C(C)(C)C)C(=O)C(=O)NC1CC1` [telaprevir]: on SARS-CoV-2 M^pro, the “inhibition of M^pro enzymatic activity” value was 31%.
